Source: patent US20090031435A1, “SMA Therapy and Cell Based Assay” (priority 2002, published 2009)

Experiments:
[1] = system: SMN2-luciferase reporter construct; assay: SMN2-luciferase splicing reporter luminescence assay in C33A cells; type: cell-based, human
Description: (§1) In a screen to identify compounds capable of enhancing the inclusion of exon 7 in SMN2 mRNA, cells of the human cervical carcinoma cell line C33A (ATCC#HTB-31) were stably transformed with an SMN fragment/luciferase reporter gene construct that incorporated exons 6-8 of SMN1 or SMN2 for use in a high-throughput screening assay. These cells were cultured in Dulbecco's Modified Eagle's Medium (DMEM) with 10% Fetal Bovine Serum (Sigma F 2442), 50 units/mL penicillin 50 μg/mL streptomycin sulfate and 400 mg/L G418 (i.e. Geneticin, Gibco, cat. No. 11811-031). The assay medium used to perform the luciferase assay was identical to the growth medium except the G418 selection agent was omitted. To perform the luciferase assay, a single reagent (25 mM glycylglycine, 15 mM magnesium sulfate, 4 mM EGTA, adjusted to pH 7.85, to which is added 10 μM D-luciferin (Sigma L9504), 10 mM dithiothreitol (DTT, Roche Molecular Biochemicals 100034), 2 mM adenosine 5′-triphosphate (ATP, Sigma A7699), 50 μM CoenzymeA, sodium salt (Sigma C 3144) and 1.5% Triton X-100) was used to lyse the cells and to initiate the luciferase reaction.
(§2) Using this cell-based luminescence assay, a screen was performed to identify compounds that modulate SMN splicing. Stably transfected C33A cells (˜35-40 M cells/flask) were cultured, then removed from T-175 culture flasks with 3 mL trypsin, and quenched with 7 mL assay medium. The cells were spun down and re-suspended in assay medium to a concentration of ˜200,000 cells/mL. Cells were immediately seeded in 384-well assay plates (Nalge Nunc white plates, #164610) 57 μL/well for a cell density of 11,000 cells/well. Compounds from a library obtained from the National Institute of Neurological Disorders and Stroke (NINDS) were added to the cells to a final concentration of 10 μM (diluted with assay medium by 1000× from the 10 mM stock solution in DMSO). The cells were incubated with the test compounds at 37° C. for ˜48 hr. A Zymark Sciclone ALH was used for cell seeding and compound addition. After incubation, the assay plates were cooled to room temperature for ˜10-60 minutes. The medium and compounds were aspirated from the wells, followed by 6 rinse/aspirate cycles with a PBS solution. 53 μL of the luciferase assay reagent was added and the plate was immediately transferred to a luminescence plate reader. The plate was shaken for 30 minutes prior to reading. The plate processing steps were performed on an integrated Packard Minitrak/Sidetrak platereader.
(§3) To analyze the data, the dark count background was first subtracted from all luminescence readings. The signal from each compound treated well was divided by the average of 48 control wells on the same 384-well plate. Each compound library plate was tested in triplicate with each of the two cell lines, and the entire assay was repeated on two separate occasions, yielding six readings for each compound for each cell line. The highest and lowest of the six normalized readings were dropped and the remaining four readings averaged. These average values of compound-treated luminescence versus control luminescence are denoted “Xnorm(y)”, where X indicates the cell line, SMN1-luciferase or SMN2-luciferase, and y represents the compound. The difference of [SMN2norm(y)−SMN1norm(y)] measures the selective change in SMN2-luciferase expression versus change in SMN1 luciferase production upon treatment with compound y. This is the final score that is output.
(§4) These dilutions were created with a Zymark Sciclone ALH Z-8. Once created, the assay was performed as described for the screening process. Concentrations required to achieve 50% of the maximally achievable effect for each compound (“EC50”) were calculated using Xlfit (IDBS).

SMN1-luciferase control = SMN1-luciferase control splicing reporter luminescence assay in C33A cells; type: cell-based, human
Description: as §1, §2, §3, §4

[2] = system: SMN2-luciferase reporter construct; assay: SMN2-luciferase splicing reporter luminescence assay in NSC34 cells; type: cell-based, mouse
Source text: For example, when luciferase is used as the reporter gene in an SMN splicing assay, synthesis of full-length protein can be monitored by luminescence; positive drug candidates will elicit an increase in the amount of luminescence produced from an SMN2-luciferase cassette, which is normally inefficiently spliced, but will not affect the level of luminescence in cells expressing the SMN1-luciferase reporter (because SMN1 transcripts are normally spliced to include exon 7 about 100% of the time). ELISA, Western blotting or gem counts (obtained using indirect immunofluorescence microscopy) can be used to verify the increase in SMN2-luciferase protein levels, and analysis by RNAase protection, Northern blot or RT-PCR, such as quantitative or semiquantitative, can be used to determine whether the effect of the compound is at the level of splicing or mRNA stability. Identification of a role for indoprofen or analogs of this compound in SMN splicing in vitro can be achieved through the generation of stable cell lines expressing the SMN-reporter gene (e.g., SMN-luciferase) splicing cassette. For example, the embryonic mouse spinal cord cell line NSC34 and the human cervical carcinoma cell line C33A can be used for the methods of the invention. […]

CC(Cc1ccccc1)C(=O)O (stereo not drawn) [Alpha-methylhydrocinnamic acid]
Effect on splicing of SMN2-luciferase in C33A cells [1]: Decreased
Effect on splicing of SMN1-luciferase control in C33A cells (SMN1-luciferase control): Decreased
Effect on splicing of SMN2-luciferase in NSC34 cells [2]: (no effect in NSC34
